Test results: patent publication US11820756B2, “Bradykinin B2 receptor antagonists” (Pharvaris Netherlands B.V., priority 2017, dated 2023)

Each compound was assayed against T1, human bradykinin B2 receptor (hB2R) (Homo sapiens, UniProt P30411) (assay: cell-based human bradykinin B2 receptor calcium mobilization (hB2R-CaM) assay). Details: HTS041C cells, bradykinin at EC80, calcium mobilization; read-out: IC50-value towards human bradykinin B2 receptor (hB2R).
T1 sequence (P30411 1-391): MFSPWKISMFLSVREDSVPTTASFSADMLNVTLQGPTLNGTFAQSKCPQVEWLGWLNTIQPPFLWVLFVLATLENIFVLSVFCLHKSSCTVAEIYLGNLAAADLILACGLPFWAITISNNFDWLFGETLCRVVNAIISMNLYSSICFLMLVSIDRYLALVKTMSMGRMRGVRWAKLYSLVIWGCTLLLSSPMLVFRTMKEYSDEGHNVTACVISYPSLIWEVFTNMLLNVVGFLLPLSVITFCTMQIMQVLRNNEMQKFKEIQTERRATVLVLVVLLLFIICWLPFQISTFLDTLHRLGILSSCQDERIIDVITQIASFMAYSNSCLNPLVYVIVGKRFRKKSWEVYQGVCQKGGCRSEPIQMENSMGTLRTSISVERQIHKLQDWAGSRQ
Excerpt: The following cell-based human bradykinin B2 receptor calcium mobilization (hB2R-CaM) assay was used to determine the antagonistic activity of compounds selected from the example compounds Nos. 1 to 168 towards human bradykinin B2 receptor (hB2R). The assay is defined herein as a standard in vitro B2 receptor activity assay, which can be used to determine IC50 values of the compounds according to the present invention, e. g. the compounds shown in Examples 1-11.
The antagonistic activity of compounds according to the present invention was investigated with the hB2R-CaM assay using the B2 Bradykinin Receptor Stable Cell Line HTS041C (Eurofins, St. Charles MO) and the FLIPR Calcium 6 Assay Kit (Molecular Devices, Wokingham, UK) according to the instructions of the providers. CaM assay measurements were performed with a Flexstation 3 System (Molecular Devices) which allows the precise addition of compounds (B2R antagonists) and bradykinin (B2R agonist) to the cells and adjacent continuous recording of the time-dependent CaM assay signals.
HTS041C cells were cultured in high glucose DMEM cell culture medium (Lonza) supplemented with 10% heat-inactivated FBS (PAN Biotech), 10 mM HEPES, Penicillin/Streptomycin (200 U/mL, 200 μg/mL), 1× non-essential amino acids (Lonza), and 250 μg/mL G418 (Invivogen) in cell incubator at 37° C. in a 5% CO2 atmosphere.
One day before the CaM assay experiments cells were seeded in 200 μL DMEM cell culture medium with reduced FBS (5%) and without G418 on clear bottom black 96 well plates (ThermoFisher #165305). Cell starvation was carried out by incubation (37° C., 5% CO2) of 70.000 cells/well for 24 h to 28 h. Immediately prior calcium dye-loading the medium was carefully aspirated and cells were washed with Hank's balanced salt solution (HBSS, Gibco) containing Ca^2+, Mg^2+ and 20 mM HEPES, adjusted to pH 7.4 (HBSS+). Calcium Dye Loading of the Cells:
For calcium dye-loading one FLIPR 6 assay aliquot was dissolved in 20 mL HBSS+. 150 μL of the dye loading solution was added to cell plate and incubated for 120 min at 37° C. and 5% CO2. After dye loading the cell plate was immediately transferred to the pre-warmed (37° C.) Flexstation 3 System for CaM assaying.
Freshly prepared compound (B2 receptor antagonists) dilution series (8 pt, n=2) and bradykinin (B2 receptor agonist) solution in non-binding plates (Costar) were transferred to the Flexstation System (source plate) shortly before starting the experiment. Bradykinin was added in EC80 concentration determined in n>3 preliminary experiments with 8 pt concentration response curves (n=8)). CaM assay was executed by Flexstation 3 System starting with recording of calcium-sensitive dye fluorescence in bottom-read Flex modus with ex/em=485 nm/525 nm, cut off(em)=[…]. After 20 s, 50 μL of 4-fold concentrated compound dilutions were added to the cells resulting in a final DMSO (Sigma) concentration of 0.1% in the cell plate. CaM signals were monitored for 80 s after additions for detection of potential agonistic activities. Prior to bradykinin stimulus compound- and vehicle-treated cells were incubated for 25 min at 37° C. within the Flexstation System. Then 50 μL of a 5-fold concentrated bradykinin solution (HBSS+, 0.1% DMSO) was added to trigger CaM signals (Read out: Max-Min values) which were measured for 80 s post bradykinin stimulus.
IC50 determinations were performed by 4 parameter logistic model curve fitting of the 8 pt (n=2) compound concentration response curves using XLFIT (IDBS) software.
Relative IC50 values of the test compounds were determined with the same hB2R-CaM assay as in Example 12.

With `CC[C@H](O)C(=O)N[C@@H](C)c1cc(F)cc(Cl)c1COc1cccc2c(-n3nccn3)cc(C)nc12` [Compound 33] as the compound, how does the IC50 read?
Its IC50 is 51 to 250 nM.

Which IC50 does the source give for `Cc1cc(-n2cc(F)cn2)c2cccc(OCc3c(Cl)cc(F)cc3[C@H](C)NC(=O)[C@](C)(O)C(F)(F)F)c2n1` [Compound 53] here?
Its IC50 is 251 to 1000 nM.

For `[2H][C@@](C)(NC(=O)CC(F)F)c1cc(F)cc(Cl)c1COc1cccc2c(-n3ncnc3C)cc(C)nc12` [Compound 209], which IC50 is on record?
Its IC50 is no more than 50 nM.

How did the IC50 turn out when `Cc1cc(-n2nccn2)c2cccc(OCc3c(Cl)cc(F)cc3[C@H](C)NC(=O)[C@H]3CCOC3)c2n1` [Compound 30] was run?
The IC50 was no more than 50 nM.

How did the IC50 turn out when `COCC(=O)N[C@@H](C)c1cc(F)cc(Cl)c1COc1cccc2c(-c3ncnn3C)cc(C)nc12` [Compound 83] was run?
The IC50 was no more than 50 nM.

Which IC50 does the source give for `Cc1cc(-n2cc(F)cn2)c2cccc(OCc3c(Cl)cc(F)cc3[C@H](C)NC(=O)c3cocn3)c2n1` [Compound 82] here?
The IC50 was no more than 50 nM.

`Cc1cc(-n2cc(F)cn2)c2cccc(OCc3c(Cl)cc(F)cc3[C@H](C)NC(=O)c3ccncc3)c2n1` [Compound 125] was tested. Which IC50 did it give?
Its IC50 is 51 to 250 nM.

Which IC50 does the source give for `CC[C@H](NC(=O)c1ccon1)c1cc(F)cc(Cl)c1COc1cccc2c(-c3ncnn3C)cc(C)nc12` [Compound 150] here?
The IC50 was no more than 50 nM.

How did the IC50 turn out when `COC(=O)[C@H](O)CC(=O)N[C@@H](C)c1cc(F)cc(Cl)c1COc1cccc2c(-n3cc(F)cn3)cc(C)nc12` [Compound 69] was run?
The IC50 was 51 to 250 nM.

`[2H][C@@](C)(NC(=O)CC(F)F)c1cc(F)cc(Cl)c1COc1cccc2c(-c3ncnn3C)cc(C)nc12` [Compound 210] was tested. Which IC50 did it give?
The IC50 was no more than 50 nM.

With `Cc1cc(-c2ncnn2C)c2cccc(OCc3c(Cl)cc(F)cc3[C@H](C)NC(=O)[C@H](C)F)c2n1` [Compound 203] as the compound, how does the IC50 read?
Its IC50 is no more than 50 nM.

How did the IC50 turn out when `Cc1cc(-n2cc(F)cn2)c2cccc(OCc3c(Cl)cc(F)cc3[C@H](C)N(C)C(=O)CO)c2n1` [Compound 102] was run?
The IC50 was no more than 50 nM.

`Cc1cc(-n2cc(F)cn2)c2cccc(OCc3c(Cl)cc(F)cc3[C@H](CO)NC(=O)C(C)(C)O)c2n1` [Compound 105] was tested. Which IC50 did it give?
Its IC50 is 51 to 250 nM.

With `Cc1cc(-n2ncc(F)c2C)c2cccc(OCc3c(Cl)cc(F)cc3[C@H](C)NC(=O)[C@@H](C)O)c2n1` [Compound 8, (R)—N—((S)-1-(3-chloro-5-fluoro-2-((4-(4-fluoro-5-methyl-1H-pyrazol-1-yl)-2-methylquinolin-8-yloxy)methyl)phenyl)ethyl)-2-hydroxypropanamide] as the compound, how does the IC50 read?
Its IC50 is 51 to 250 nM.

Which IC50 does the source give for `Cc1cc(-n2cc(F)cn2)c2cccc(OCc3c(Cl)cc(F)cc3[C@H](C)NC(=O)c3cncs3)c2n1` [Compound 90] here?
The IC50 was no more than 50 nM.

How did the IC50 turn out when `Cc1cc(-n2cc(F)cn2)c2cccc(OCc3c(Cl)cc(F)cc3[C@H](C)NC(=O)c3cn(C)cn3)c2n1` [Compound 108] was run?
The IC50 was 51 to 250 nM.

With `Cc1cc(-n2cc(F)cn2)c2cccc(OCc3c(Cl)cc(F)cc3[C@H](C)NC(=O)[C@H]3CCC(=O)N3)c2n1` [Compound 115] as the compound, how does the IC50 read?
The IC50 was 51 to 250 nM.

`Cc1cc(-n2cc(F)cn2)c2cccc(OCc3c(Cl)cc(F)cc3[C@H](C)NC(=O)C[C@H](C)O)c2n1` [Compound 27] was tested. Which IC50 did it give?
Its IC50 is no more than 50 nM.

`Cc1cc(-n2cc(F)cn2)c2cccc(OCc3c(Cl)cc(F)cc3[C@H](C)NC(=O)[C@H](O)CC(C)C)c2n1` [Compound 47] was tested. Which IC50 did it give?
The IC50 was 251 to 1000 nM.

For `Cc1cc(-n2nc(C)nc2C)c2cccc(OCc3c(Cl)cc(F)cc3[C@H](C)NC(=O)c3ccon3)c2n1` [Compound 135], which IC50 is on record?
Its IC50 is 51 to 250 nM.

How did the IC50 turn out when `Cc1cc(-c2ncnn2C)c2cccc(OCc3c(Cl)cc(F)cc3[C@H](C)NC(=O)COCC3CC3)c2n1` [Compound 117] was run?
Its IC50 is no more than 50 nM.

For `Cc1cc(-n2cc(F)cn2)c2cccc(OCc3c(Cl)cc(F)cc3[C@H](C)NC(=O)[C@@H](O)CCN)c2n1` [Compound 66], which IC50 is on record?
The IC50 was 51 to 250 nM.

Which IC50 does the source give for `[2H][C@@](C)(NC(=O)[C@H](C)F)c1cc(F)cc(Cl)c1COc1cccc2c(-c3ncnn3C)cc(C)nc12` [Compound 213] here?
The IC50 was no more than 50 nM.

How did the IC50 turn out when `CC[C@H](NC(=O)C(F)F)c1cc(F)cc(Cl)c1COc1cccc2c(-c3ncnn3C)cc(C)nc12` [Compound 148] was run?
Its IC50 is no more than 50 nM.

Which IC50 does the source give for `Cc1cc(-n2cc(F)cn2)c2cccc(OCc3c(Cl)cc(F)cc3[C@H](C)NC(=O)COC(F)(F)F)c2n1` [Compound 121] here?
The IC50 was no more than 50 nM.
